Measured values taken from PMC7099627, “Design, synthesis, heme binding and density functional theory studies of isoindoline-dione-4-aminoquinolines as potential antiplasmodials” (Future Medicinal Chemistry, 2019).
Like-named read-outs stand apart in the source and are kept apart here.

Columns and labels:
[1] = tested on: chloroquine-resistant W2 strain of Plasmodium falciparum; test: Antiplasmodial activity, growth inhibition by flow cytometry; type: cell-based
Procedure: The compounds were added from DMSO stocks; the maximum concentration of DMSO used was 0.1%. Controls without inhibitors included 0.1% DMSO. […] Fixed parasites were then transferred to 0.1% Triton X-100 in phosphate-buffered saline containing 1 nM YOYO-1 dye (Molecular Probes, MA, USA). Parasitemia was determined from dot plots (forward scatter vs fluorescence) acquired on a FACSort flow cytometer using Cell Quest software (Beckton Dickinson, NJ, USA). IC50 values for growth inhibition were determined from plots of percent control parasitemia over inhibitor concentration using the Prism 5.0 program (GraphPad Software, CA, USA), with data from duplicate experiments fitted by nonlinear regression.
The synthesized C4/C5substituted-isoindoline-1,3-diones-4-aminoquinolines were screened for their antiplasmodial activity against CQR (W2) strain of P. falciparum (Table 1).

Vero cells = test: Cytotoxicity assay (resazurin cell viability); type: cell-based; settings: for SI (selectivity index): Vero cytotoxicity vs W2 antiplasmodial IC50
Procedure: (§1) Cell viability was determined using Vero cells (ATCC, Sigma, Munich, Germany), which were grown in RPMI medium (Gibco) supplemented with 10% decomplemented fetal calf serum under 5% CO2 atmosphere.

[2] = Cytotoxicity assay (resazurin cell viability); type: cell-based; settings: African green monkey; mammalian Vero cells, 24 h incubation, resazurin
Procedure: as §1

[3] = Heme-binding spectrophotometric titration (HypSpec); settings: 40% aq. DMSO, heme 12 μM
Procedure: The resultant 40% DMSO solutions maintain the hematin solutions in the monomeric state at concentrations used. […] All the working solutions were kept in dark to avoid photo-sensitivity. Diluent solutions were prepared by dissolving 1 mL of 0.02 M HEPES and 4 mL of spectroscopic grade DMSO and made up to a final volume of 10 mL with ultrapure, HPLC grade Hipersolv water.

[4] = Plasmodium falciparum, W2, 48 h, chloroquine-resistant W2 strain, 48 h incubation, read-out: IC50
[5] = mammalian Vero cells, 24 h incubation, resazurin, read-out: IC50 (μM cytotoxicity)
[6] = Plasmodium falciparum, W2, chloroquine-resistant W2 strain, Figure 1, read-out: IC50
[7] = chloroquine-resistant W2 strain, 48 h incubation, read-out: IC50

O=C1c2cccc(N3CCCCC3)c2C(=O)N1CCCNc1ccnc2cc(Cl)ccc12 [4b]
IC50 [1, 4]: 162 nM
SI (selectivity index) (Vero cells): 344.4
IC50 (Vero cells; [5]): 55.8 µM

CCN(CC)CCCC(C)Nc1ccnc2cc(Cl)ccc12 (stereo not shown) [CQ, Chloroquine, reference compound]
IC50 ([1]; Plasmodium falciparum, W2, 48 h): 79 nM

O=C1c2cccc(N3CCOCC3)c2C(=O)N1CCCNc1ccnc2cc(Cl)ccc12 [4j]
IC50 [1, 4]: 276 nM
SI (selectivity index) (Vero cells): 805
IC50 (Vero cells; [5]): 222 µM

C[C@@H]1CC[C@H]2[C@@H](C)C(=O)O[C@@H]3O[C@@]4(C)CC[C@@H]1[C@]32OO4 [ART, Artemisinin, reference compound]
IC50 [1, 4]: 5 nM
IC50 [1, 6]: 5.3 nM

O=C1c2ccc(N3CCOCC3)cc2C(=O)N1CCCCCCNc1ccnc2cc(Cl)ccc12 [4p]
IC50 [1, 4]: 19 nM
IC50 at 24 h [2]: < 25.4 µM

O=C1c2cccc(N3CCOCC3)c2C(=O)N1CCCCNc1ccnc2cc(Cl)ccc12 [4k, 2-(4-((7-chloroquinolin-4-yl)amino)butyl)-4-morpholinoisoindoline-1,3-dione]
IC50 [1, 4]: 71 nM
SI (selectivity index) (Vero cells): 1517
IC50 (Vero cells; [5]): 108 µM

O=C1c2ccc(N3CCN(CCO)CC3)cc2C(=O)N1CCCNc1ccnc2cc(Cl)ccc12 [4r, 2-(3-((7-chloroquinolin-4-yl)amino)propyl)-5-(4-(2-hydroxyethyl)piperazin-1-yl)isoindoline-1,3-dione]
IC50 [1, 6]: 6.6 nM
activity relative to CQ (fold higher) ([1]; antiplasmodial activity vs CQ): ~12 fold
IC50 [1, 7]: 6 nM
Monomeric Heme log K ([3]; pH 5.6 (MES buffer)): 5.41
Monomeric Heme log K ([3]; pH 7.4 (HEPES buffer)): 5.14
IC50 at 24 h [2]: < 25.3 µM

O=C1c2cccc(N3CCCCC3)c2C(=O)N1CCCCCCNc1ccnc2cc(Cl)ccc12 [4d, 2-(6-((7-chloroquinolin-4-yl)amino)hexyl)-4-(piperidin-1-yl)isoindoline-1,3-dione]
IC50 [1, 4]: 75 nM
SI (selectivity index) (Vero cells): 2720
IC50 (Vero cells; [5]): 204 µM

O=C1c2ccc(N3CCCCC3)cc2C(=O)N1CCCCNc1ccnc2cc(Cl)ccc12 [4g]
IC50 [1, 4]: 77 nM
IC50 at 24 h [2]: < 27 µM

O=C1c2ccc(N3CCN(CCO)CC3)cc2C(=O)N1CCCCCCNc1ccnc2cc(Cl)ccc12 [4t]
IC50 [1, 4]: 15 nM
IC50 at 24 h [2]: < 23.3 µM

O=C1c2ccc(N3CCCCC3)cc2C(=O)N1CCCNc1ccnc2cc(Cl)ccc12 [4f, 2-(3-((7-chloroquinolin-4-yl)amino)propyl)-5-(piperidin-1-yl)isoindoline-1,3-dione]
IC50 [1, 4]: 176 nM
SI (selectivity index) (Vero cells): 317
IC50 (Vero cells; [5]): 55.8 µM

O=C1c2cccc(N3CCOCC3)c2C(=O)N1CCNc1ccnc2cc(Cl)ccc12 [4i]
IC50 [1, 4]: 180 nM
IC50 at 24 h [2]: < 28.6 µM

O=C1c2ccc(N3CCN(CCO)CC3)cc2C(=O)N1CCNc1ccnc2cc(Cl)ccc12 [4q]
IC50 [1, 4]: 44 nM
IC50 at 24 h [2]: < 26 µM

O=C1c2ccc(N3CCN(CCO)CC3)cc2C(=O)N1CCCCNc1ccnc2cc(Cl)ccc12 [4s, 2-(4-((7-chloroquinolin-4-yl)amino)butyl)-5-(4-(2-hydroxyethyl)piperazin-1-yl)isoindoline-1,3-dione]
IC50 [1, 4]: 14 nM
IC50 at 24 h [2]: < 24.6 µM

O=C1c2cccc(N3CCCCC3)c2C(=O)N1CCNc1ccnc2cc(Cl)ccc12 [4a]
IC50 [1, 7]: 158 nM
IC50 (Vero cells): < 28.8 µM

O=C1c2ccc(N3CCOCC3)cc2C(=O)N1CCCNc1ccnc2cc(Cl)ccc12 [4n]
IC50 [1, 4]: 118 nM
SI (selectivity index) (Vero cells): 1883
IC50 (Vero cells; [5]): 222 µM

O=C1c2cccc(N3CCOCC3)c2C(=O)N1CCCCCCNc1ccnc2cc(Cl)ccc12 [4l]
IC50 [1, 4]: 25 nM
IC50 (Vero cells; [5]): 50.8 µM

O=C1c2cccc(N3CCCCC3)c2C(=O)N1CCCCNc1ccnc2cc(Cl)ccc12 [4c, 2-(4-((7-chloroquinolin-4-yl)amino)butyl)-4-(piperidin-1-yl)isoindoline-1,3-dione]
IC50 [1, 4]: 50 nM
IC50 [1, 7]: 51 nM
SI (selectivity index) (Vero cells): 1060.7
IC50 (Vero cells; [5]): 54.1 µM

O=C1c2ccc(N3CCCCC3)cc2C(=O)N1CCNc1ccnc2cc(Cl)ccc12 [4e]
IC50 [1, 7]: 163 nM
IC50 (Vero cells): < 28.8 µM

O=C1c2ccc(N3CCOCC3)cc2C(=O)N1CCCCNc1ccnc2cc(Cl)ccc12 [4o, 2-(4-((7-chloroquinolin-4-yl)amino)butyl)-5-morpholinoisoindoline-1,3-dione]
IC50 [1, 4]: 49 nM
IC50 at 24 h [2]: < 26.9 µM

O=C1c2ccc(N3CCOCC3)cc2C(=O)N1CCNc1ccnc2cc(Cl)ccc12 [4m, 2-(2-((7-chloroquinolin-4-yl)amino)ethyl)-5-morpholinoisoindoline-1,3-dione]
IC50 [1, 4]: 370 nM
IC50 at 24 h [2]: < 28.6 µM

O=C1c2ccc(N3CCCCC3)cc2C(=O)N1CCCCCCNc1ccnc2cc(Cl)ccc12 [4h]
IC50 [1, 7]: 123 nM
IC50 (Vero cells): < 25.5 µM
